{"source": "patent US20250362286A1", "about": "“SCREENING MODELS AND METHODS OF CANCER TREATMENT” (The Regents of the University of California, priority 2022, published 2025)", "type_in_all_cases": "cell-based", "key": {"MDA-MB-231s": {"test_system": "MDA-MB-231s", "experiment": "CD24 mRNA expression in 2D (differentiation screening)", "settings": "200 μM, 48h, FCthreshold=2.0", "protocol": "FIG. 3H depicts relative CD24 mRNA expression. CD24 expression was an early indicator of response to ISX9 in 2D across several TNBC cell lines. Treatment screening of several different TNBC cell lines with ISX9 in 2D for 48h yielded four responders, as determined by CD24 mRNA expression (FIG. 3H).\nThese analogs were screened for their potential to differentiate MDA-MB-231s, yielding at least one new hit, CR-1 (˜98% similarity), which induced a ˜6-fold upregulation of CD24 at a concentration of 200 μM at 48h in 2D (FIG. 6)."}, "MDAs [1]": {"test_system": "MDAs", "experiment": "invasion distances of MDAs in HD Col1 treated with GSIs", "settings": "HD Col1, vs vehicle (0.1% DMSO)", "source_text": "Therefore, this example assessed what effect GSIs would have on MDAs in HD Col1. […] FIG. 3C depicts invasion distances of MDAs in HD Col1 treated with vehicle (0.1% DMSO) or GSIs DAPT and MK0752."}, "CSCs": {"test_system": "CSCs", "experiment": "phenotypic effects in CSCs (MOA controls)", "settings": "compared to ISX9 (data not shown)", "source_text": "(§1) Therefore, to begin to characterize the MOA of ISX9 in CSCs, it was first determined whether ISX9 treatment of CSCs triggered Ca^2+ signaling. MDAs were transduced to express the genetically encoded Ca^2+ sensor GCamp6f and treated with vehicle, ionomycin (positive control), or ISX9 (data not shown). […] FIG. 5 depicts Ca^2+ response of MDAs to ISX9 treatment. Scale bar=250 μm."}, "MDA-MB-231 cells": {"test_system": "MDA-MB-231 cells", "experiment": "western blot of acetylation of histones H3 and H4", "settings": "2D- and 3D-treated cells, 24 hours", "source_text": "Also identified was the fact that a similar increase in acetylation was found in patient-derived organoid models. […] Acetylation and deactylation of histones H3 and H4 are typically orchestrated by Histone Acetyltransferases (HATs), including the several HAT subfamilies, as well as HDACs (see, e.g., Marmorstein, R. et al. Cold Spring Harb. Perspect. Biol. 6, a018762 (2014)). Not wishing to be bound by any particular theory, Isx9 may bind directly to HATs and/or HDACs in order to activate histone acetylation and drive induction of MET and/or CSC differentiation."}, "MDAs [2]": {"test_system": "MDAs", "experiment": "Ca2+ signaling with genetically encoded Ca2+ sensor GCamp6f", "settings": "GCamp6f-expressing MDAs (data not shown)", "source_text": "as §1"}}}
{"smiles": "CC(C)NC(=O)c1cc(-c2cccs2)on1", "note": "[CR-1]", "values": [{"measurement": "upregulation of CD24", "setting": "MDA-MB-231s", "result": "~6", "unit": "fold"}]}
{"smiles": "C[C@H](NC(=O)Cc1cc(F)cc(F)c1)C(=O)N[C@H](C(=O)OC(C)(C)C)c1ccccc1", "note": "[DAPT]", "values": [{"measurement": "inhibition of the CINP / tumor cell invasion", "setting": "MDAs [1]", "result": "did not inhibit the CINP, but rather slightly promoted tumor cell invasion"}]}
{"smiles": "O=C(O)CC[C@H]1CC[C@@](c2cc(F)ccc2F)(S(=O)(=O)c2ccc(Cl)cc2)CC1", "note": "[MK0752]", "values": [{"measurement": "inhibition of the CINP / tumor cell invasion", "setting": "MDAs [1]", "result": "did not inhibit the CINP, but rather slightly promoted tumor cell invasion"}]}
{"smiles": "CN[C@H](CC(=O)O)C(=O)O", "note": "[NMDA, N-Methyl-D-aspartate]", "values": [{"measurement": "phenotypic effects", "setting": "CSCs", "result": "no phenotypic effects"}]}
{"smiles": "CC(/C=C/C(=O)NO)=C\\[C@@H](C)C(=O)c1ccc(N(C)C)cc1", "note": "[TSA, reference compound]", "values": [{"measurement": "acetylation of histones H3 and H4", "setting": "MDA-MB-231 cells", "result": "similarly induced H3/H4 acetylation"}]}
{"smiles": "C[C@H](CCC(=O)O)C[C@H](C)C[C@H](C)C(=O)/C=C(\\O)[C@H](C)C[C@H](C)C/C=C/[C@@H](C)[C@@H](O)[C@@H](C)[C@@H](O)C[C@@H]1CC[C@@](C)([C@H]2CC[C@@](C)([C@@H](C)O)O2)O1", "note": "[ionomycin, reference compound]", "values": [{"measurement": "Ca2+ signal", "setting": "MDAs [2]", "result": "observed"}]}
